This test deals with T1, GPX4 (Homo sapiens, UniProt P36969, U73C).
T1 sequence (P36969 33-197 U73C): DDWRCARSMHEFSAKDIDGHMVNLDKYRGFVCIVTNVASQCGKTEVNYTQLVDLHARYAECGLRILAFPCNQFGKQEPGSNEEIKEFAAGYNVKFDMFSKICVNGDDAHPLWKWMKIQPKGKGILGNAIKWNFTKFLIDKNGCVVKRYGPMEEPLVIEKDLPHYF
The test is described as follows: Surface plasmon resonance (SPR). In kind it is binding. The settings on record: Table 1. An excerpt:
These x-ray structures enabled further optimization of current inhibitors and the design of novel inhibitors targeting various binding sites on GPX4. Therefore, we applied a strategy of computer-facilitated design, based on MD simulation (Desmond) and Glide docking (Schrödinger Suite), and experimental high-throughput screening of a lead-optimized compound library of 10,000 compounds (FIGS. 6A-6E). All candidates were first evaluated by thermal denaturation assay and microscale thermophoresis (MST) to validate binding to GPX4 (Table 1). Surface plasmon resonance (SPR) and isothermal titration calorimetry (ITC) were then applied to precisely measure their binding kinetics and affinities, while ^1H-^15N heteronuclear single-quantum coherence (HSQC) NMR spectroscopy informed us of binding sites. We optimized two GPX4-specific activity assays to examine enzymatic inhibitory effects of hit compounds—LC-MS-based substrate/product monitoring and an NADPH-coupled assay. […] Some L880 analogues were also synthesized and tested (Table 2).
Background: In SPR one partner is held on a chip, and binding of the other changes the refractive index at the surface.

With `COc1cccc2[nH]c(C(=O)n3ccnc3)cc12` [LOC1886], the SPR result is given as “positive”.
